What was measured:
[1] = tested on: microfluidic devices seeded with human liver cells; assay: Mitochondrial membrane potential (TMRM) in human chips; format: cell-based; conditions: TAK-875 3, 10, 30 μM, 8 or 15 days
Text: (§1) Microfluidic devices seeded with liver cells were stained in the upper channel with 5(6)-Carboxy-2′,7′-dichlorofluorescein diacetate (CDFDA) (ThermoFisher) to visualize bile canaliculi and MRP2 activity, cholyl-lysyl-fluorescein (CLF) (Corning) to visualize bile canaliculi and BSEP activity, Nile red (ThermoFisher) or AdipoRed (Lonza) to visualize lipid droplet accumulation, Tetramethylrhodamine, methyl ester (TMRM) (ThermoFisher) to visualize active mitochondria, and CellROX® (ThermoFisher) to visualize cellular oxidative stress. Each staining solution was prepared in blank medium or compound dosing medium and added to the upper channel, incubated for 15 minutes at 37° C., and washed three times with medium. The stained microfluidic devices were imaged using a specific filter, and were de-blurred with Olympus cellSens software. Using ImageJ-Fiji, the fluorescent channel images were histogram adjusted to remove background, followed by fluorescence quantification using the Integrated Density calculation function.

[2] = tested on: microfluidic devices seeded with human liver cells; assay: Lipid accumulation (Nile red / AdipoRed) in human chips; format: cell-based
Text: as §1
(§2) The stained microfluidic devices were imaged using the TRITC filter, and were de-blurred with Olympus cellSens software. Using ImageJ-Fiji, the fluorescent channel images were histogram adjusted to remove background, followed by fluorescence quantification using the Integrated Density calculation function. N=5 FOVs per microfluidic device were analyzed for conditions: vehicle (0.1% DMSO), FIAU dosing groups, and MTX dosing groups.

[3] = tested on: microfluidic devices seeded with human liver cells; assay: ROS levels (CellROX) in human chips; format: cell-based; conditions: TAK-875, up to 15 days
[4] = tested on: microfluidic devices seeded with human liver cells; assay: Albumin secretion, microfluidic devices seeded with human liver cells; format: cell-based
Text: Prior to cell seeding, microfluidic devices, in this case S-1 Chips (Emulate, Inc. Boston, Mass., USA), were functionalized using Emulate's proprietary protocols and reagents (ERT™), including those described herein. After surface functionalization, both channels of the microfluidic device were coated with species-specific extracellular matrices (ECM). For the human bound microfluidic device, a mixture of collagen type I (Corning, Corning, N.Y., USA) and fibronectin, e.g. bovine, (Gibco) was used; for the rat bound microfluidic devices a mixture of collagen type IV, e.g. human placenta, (Sigma-Aldrich, St. Louis, Mo., USA) and fibronectin (Gibco) was used; for the dog bound microfluidic devices a mixture of collagen I (Corning), collagen type IV (Sigma-Aldrich), and fibronectin (Gibco) was used. […] For the dual-cell culture model (hepatocytes and endothelial cells), the LSECs were seeded at a concentration of 2-4 million cells/mL in the lower vascular channel. […] After cell seeding, the upper channel of the microfluidic device was maintained in William's E Medium (WEM) containing Glutamax (Gibco), ITS+(Corning), dexamethasone (Sigma-Aldrich), ascorbic acid (Sigma-Aldrich), fetal bovine serum (FBS) (Sigma-Aldrich), and Penicillin/Streptomycin (Sigma-Aldrich). The vascular channel of the microfluidic device was maintained with species-specific endothelial media (Emulate, Inc.). Two days after seeding, the microfluidic devices were connected to the Human Emulation System™ (Emulate, Inc.), as described in part herein, and both of the microfluidic device channels were perfused at 30 μL/hr to provide a continuous supply of fresh media for the duration of the experiments. Albumin secretion from the upper channel was quantified using ELISA kits for human, rat, and dog models effluent samples (human and rat: Abcam; dog: Immunology Consultants Laboratory, Inc., Portland, Oreg., USA) and the assays were performed according to the protocol provided by each vendor.

[5] = tested on: microfluidic devices seeded with human liver cells; assay: Cytokine release (IL-6, MCP-1, IP-10) from the vascular channel of human chips; format: cell-based; conditions: for IL-6 release / MCP-1 release: 14 days; for release of cytokines/chemokines including IP-10: treated chips
Procedure: Cytokines: Release of IL-6, MCP-1, and IP-10 from the vascular channel was quantified using U-PLEX biomarker human assays (Meso Scale Diagnostics, Rockville, Md., USA) and the assays were performed according to the protocol provided by the vendor.

[6] = tested on: microfluidic devices seeded with human liver cells; assay: DILI biomarker release (alpha-GST, miR-122, keratin 18) from human chips; format: cell-based
Text: Exemplary Biomarker, e.g. DILI: Keratin 18 levels were quantified in human model effluent samples from both the hepatocyte and vascular channels using the M65 EpiDeath CK18 ELISA Kit (DiaPharma, Detroit, Mich., USA). The assay was run following the vendor protocol using a standard curve ranging from 0-5,000 U/L. Additionally, a standard curve ranging from 0-500 U/L was generated independently for quality control.
Exemplary Biomarker, e.g. DILI: Alpha Glutathione S-Transferase (α-GST) levels were quantified in human model effluent samples from the upper channel using an ELISA kit (DiaPharma). The assay was run following the vendor protocol using a standard curve ranging from 0-64 μg/L. Additionally, a standard curve ranging from 0-50 μg/L was generated independently for quality control.
Exemplary Biomarker, e.g. DILI: Mir-122: Isolation of micro-RNAs was performed on upper and lower chamber eluates using Qiagen's (Hilden, Germany) miRNA isolation kit for serum and plasma. A total volume of 50 μL was used for isolation. Isolation was performed according to manufacturer's protocol using a 56.5 pM oligonucleotide spike-in control. Samples were eluted with 14 μL RNase-free water. Reverse transcription was performed using Thermo Fisher Scientific's TaqMan™ MicroRNA Reverse Transcription Kit according to the manufacturer's protocol. A total reaction volume of 15 μL was used. Real-time PCR was performed using Thermo Fisher Scientific's TaqMan™ Micro-RNA Assays according to manufacturer's protocol. A total reaction volume of 10 μl was used. Normalized rrCt was used for fold-change analysis.

[7] = cited from earlier work
stellate cells = assay: Stellate cell activation (alpha-SMA) in human chips; format: cell-based
Procedure: Microfluidic devices seeded with liver cells and static sandwich plate cultures were fixed with 4% paraformaldehyde for 15 minutes at room temperature, washed with PBS, and permeabilized (saponin 1% with 10% serum in PBS). Blocking and incubation with the primary antibodies (overnight in PBS containing 1% BSA or PBS containing 10% serum and 1% BSA) was followed by a two-hour incubation with secondary antibodies (Cell Signaling, Danvers, Mass., USA) in the same blocking buffer. Immunostaining was performed with specific primary antibodies (anti-MRP2, anti-stabilin-1, anti-BSEP, anti-α-SMA, anti-CD68; Abcam, Cambridge, Mass., USA) and images were acquired with either an Olympus fluorescence microscope (IX83) or Zeiss confocal microscope (AxiovertZ1 LSM880).
The number of CD68- or α-SMA-positive cells in the vascular channel in each group was counted in each field of view ([…]) and quantified.
The fluorescent channel (588) was first background subtracted and processed using the median filter of Image J. After processing, the signal was thresholded using adaptive thresholding function of Image J (Otsu method) to extract fluorescent regions and to measure the relative intensity of the fluorescent signal. N=4 to 6 FOVs per microfluidic device from each microfluidic device were analyzed. […]

MRP2 = molecular target: T1, MRP2 (Homo sapiens, UniProt Q92887); assay: Biliary efflux of MRP2 substrate CDFDA in human chips; format: cell-based; conditions: TAK-875 3, 10, 30 μM, up to 15 days
T1 construct: Primary rat, dog or human hepatocytes were cultured in the upper parenchymal channel; endogenous in cells; host or cells: primary human hepatocytes in a microfluidic Liver-Chip
T1 sequence (Q92887 whole entry): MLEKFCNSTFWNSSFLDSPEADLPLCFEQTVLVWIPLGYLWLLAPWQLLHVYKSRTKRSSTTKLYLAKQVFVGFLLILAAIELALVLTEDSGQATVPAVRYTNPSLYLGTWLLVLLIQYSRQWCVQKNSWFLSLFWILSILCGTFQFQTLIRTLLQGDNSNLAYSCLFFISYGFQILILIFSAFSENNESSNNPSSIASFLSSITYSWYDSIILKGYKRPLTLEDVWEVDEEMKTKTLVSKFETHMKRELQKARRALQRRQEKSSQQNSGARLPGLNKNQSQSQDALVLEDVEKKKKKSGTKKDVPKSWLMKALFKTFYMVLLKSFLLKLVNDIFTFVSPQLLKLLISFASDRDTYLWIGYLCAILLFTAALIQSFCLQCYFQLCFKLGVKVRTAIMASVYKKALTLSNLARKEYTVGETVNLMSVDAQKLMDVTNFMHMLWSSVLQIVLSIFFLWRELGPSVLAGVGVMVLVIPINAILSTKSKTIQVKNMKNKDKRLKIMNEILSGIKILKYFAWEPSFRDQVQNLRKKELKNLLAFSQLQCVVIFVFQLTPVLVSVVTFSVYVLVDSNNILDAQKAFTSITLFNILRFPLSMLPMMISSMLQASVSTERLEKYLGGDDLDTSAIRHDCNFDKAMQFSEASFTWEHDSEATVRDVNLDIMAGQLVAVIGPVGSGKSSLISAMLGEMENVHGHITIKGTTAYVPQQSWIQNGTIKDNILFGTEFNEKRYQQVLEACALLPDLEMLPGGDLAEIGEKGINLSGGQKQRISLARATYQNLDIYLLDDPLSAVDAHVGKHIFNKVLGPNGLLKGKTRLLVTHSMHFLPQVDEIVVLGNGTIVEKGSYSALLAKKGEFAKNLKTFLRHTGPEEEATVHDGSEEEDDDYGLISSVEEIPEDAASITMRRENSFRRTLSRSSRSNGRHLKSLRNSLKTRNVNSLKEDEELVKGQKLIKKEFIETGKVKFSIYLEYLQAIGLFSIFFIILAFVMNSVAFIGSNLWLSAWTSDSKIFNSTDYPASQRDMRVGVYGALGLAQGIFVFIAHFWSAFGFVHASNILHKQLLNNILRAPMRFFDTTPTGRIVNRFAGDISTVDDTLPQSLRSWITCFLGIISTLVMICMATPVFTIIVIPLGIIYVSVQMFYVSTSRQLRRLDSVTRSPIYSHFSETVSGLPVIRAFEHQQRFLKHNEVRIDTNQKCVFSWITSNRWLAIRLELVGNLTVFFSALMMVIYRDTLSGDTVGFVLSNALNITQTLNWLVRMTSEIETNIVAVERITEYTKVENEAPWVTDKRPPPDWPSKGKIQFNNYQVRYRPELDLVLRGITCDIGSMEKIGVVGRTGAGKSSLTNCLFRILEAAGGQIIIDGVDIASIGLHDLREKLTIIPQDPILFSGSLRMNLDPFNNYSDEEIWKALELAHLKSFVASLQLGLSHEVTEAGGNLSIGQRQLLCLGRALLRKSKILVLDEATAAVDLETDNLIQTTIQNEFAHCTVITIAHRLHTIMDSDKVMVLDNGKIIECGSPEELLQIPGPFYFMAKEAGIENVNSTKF

[8] = tested on: microfluidic devices seeded with rat liver cells; assay: Lipid accumulation (Nile red) in rat chips; format: cell-based; conditions: rat chips, 1, 10, 30 μM, 10 days
Text: as §1, with “The stained microfluidic devices were imaged using a specific filter, and were de-blurred with Olympus cellSens software.” left out
as §2

[9] = tested on: microfluidic devices seeded with rat liver cells; assay: Albumin secretion / hepatocyte function, microfluidic devices seeded with rat liver cells; format: cell-based; conditions: rat quadruple-cell chips, 1, 10, 30 μM
Text: Prior to cell seeding, microfluidic devices, in this case S-1 Chips (Emulate, Inc. Boston, Mass., USA), were functionalized using Emulate's proprietary protocols and reagents (ERT™), including those described herein. After surface functionalization, both channels of the microfluidic device were coated with species-specific extracellular matrices (ECM). For the human bound microfluidic device, a mixture of collagen type I (Corning, Corning, N.Y., USA) and fibronectin, e.g. bovine, (Gibco) was used; for the rat bound microfluidic devices a mixture of collagen type IV, e.g. human placenta, (Sigma-Aldrich, St. Louis, Mo., USA) and fibronectin (Gibco) was used; for the dog bound microfluidic devices a mixture of collagen I (Corning), collagen type IV (Sigma-Aldrich), and fibronectin (Gibco) was used. […] For the dual-cell culture model (hepatocytes and endothelial cells), the LSECs were seeded at a concentration of 2-4 million cells/mL in the lower vascular channel. […] Albumin secretion from the upper channel was quantified using ELISA kits for human, rat, and dog models effluent samples (human and rat: Abcam; dog: Immunology Consultants Laboratory, Inc., Portland, Oreg., USA) and the assays were performed according to the protocol provided by each vendor.

[10] = tested on: hepatocytes in microfluidic devices seeded with human liver cells; assay: Hepatocyte morphology (bright-field) in human chips; format: cell-based; conditions: quadruple-cell human chips, daily administration 7 days

Cc1cc(OCCCS(C)(=O)=O)cc(C)c1-c1cccc(COc2ccc3c(c2)OC[C@H]3CC(=O)O)c1 [TAK-875]
mitochondrial membrane potential, TMRM distribution [1]: dose-related and time-dependent redistribution
lipid droplet accumulation (AdipoRed) ([2]; end of the 2-week treatment): detected
formation of ROS [3]: increase
albumin production ([4]; 30 μM, 14 days, human chips): decreased
IL-6 release ([5]; 10 μM): significant release
MCP-1 release ([5]; 10 μM): significant release
IL-6 release ([5]; 30 μM (highest dose)): not observed
MCP-1 release ([5]; 30 μM (highest dose)): not observed
release of K18 ([6]; 30 μM, 14 days): increased release
markers of hepatocyte function or necrosis (albumin and K18) ([6]; accompanying mitochondrial perturbations, human chips): minimal changes
incidence of treatment-related elevations in transaminases (>3-fold rise in upper limit of normal) ([7]; Phase III trials): 2.7%
% aSMA positive area from the vascular channel (stellate cells; 10 or 30 uM for 15 days, human Liver-Chips): Not significant
biliary efflux of the MRP2 substrate CDFDA (MRP2): dose-dependent decrease

O=c1[nH]c(=O)n([C@@H]2O[C@H](CO)[C@@H](O)[C@@H]2F)cc1I [FIAU, fialuridine]
lipid accumulation (Nile red) ([2]; daily 1, 10, 30 μM for 10 days, human chips): dose-dependent increase
concentrations with dose-dependent decline in albumin secretion ([4]; quadruple-cell human chips, daily FIAU 1, 10, 30 μM): ≥ 1000 nM
lipid accumulation [8]: no effects
release of cytokines/chemokines including IP-10 [5]: observed
keratin 18 (K-18) (liver injury marker) ([6]; FIAU 1, 10, 30 μM, 10 days): release
miR122 (liver injury marker) ([6]; FIAU 1, 10, 30 μM, 10 days): release
α-GST (liver injury marker) ([6]; FIAU 1, 10, 30 μM, 10 days): release
patients with liver failure and death ([7]; Phase II clinical trials): 5/15
hepatocyte function [9]: no effects

CN(Cc1cnc2nc(N)nc(N)c2n1)c1ccc(C(=O)N[C@@H](CCC(=O)O)C(=O)O)cc1 [MTX, Methotrexate]
lipid accumulation (Nile red) ([2]; daily 1, 10, 30 μM for 7 days): microscopic evidence of lipid accumulation
hepatocyte morphology [10]: no abnormalities
albumin synthesis / secretion ([4]; quadruple-cell human chips, 7 days): no abnormalities
IP-10 ([5]; MTX 1, 10, 30 μM, vascular channel, 1 day (FIG. 8C)): increases
release of cytokines/chemokines including IP-10 [5]: observed
maximal plasma concentration at which liver injury occurs in humans ([7]; some patient populations): ~1 µM
stellate cell activation, expression of α-SMA (stellate cells; daily 1, 10, 30 μM for 7 days): increased expression

— patent US20210340572A1, “HIGH-CONTENT IMAGING OF MICROFLUIDIC DEVICES” (EMULATE, Inc., priority 2019, published 2021)
